Measured values published in a melting point compilation (Tetko et al.; mined from patent text by program, amines drawn as free bases though some values may be those of a salt).

First: COc1ccc(C(=O)Nc2ccccc2CCC2CCCCN2C)cc1 (stereo not drawn)
Second: CC(=O)c1ccc(Oc2ccc(S(=O)(=O)C3CCCCC3)cn2)cc1
The melting point of the first is higher: 127 to 128 °C for the first, 116 to 118 °C for the second.

Compared with `CC(C)CC1(C)C(=O)NCCN1Cc1ccccc1` (stereo not drawn), `CN1C(=O)CC[C@]2(C)c3ccc(CCc4ccccc4)cc3CC[C@@H]12` is lower in melting point: 158 to 161 °C for the first, 109 to 111 °C for the second.

First: CNC(=O)c1cnn(-c2ccccc2)c1Cl
Second: COC(=O)c1cc(=O)c(OCc2ccccc2)co1
The melting point of the first is higher: 182 to 183 °C for the first, 134 to 136 °C for the second.

First: O=S(=O)(Cl)c1ccc(-c2ccc(F)cc2)s1
Second: COc1ccccc1-c1ccc(C)cc1
The melting point of the first is higher: 82 to 85 °C for the first, 70 to 72 °C for the second.

First: N#Cc1ncn2c1COC(=O)c1ccccc1-2
Second: C#Cc1ccc(-c2ccccc2)c(C)c1
The melting point of the first is higher: 220 to 221 °C for the first, 57 to 59 °C for the second.

Compared with `COCC1(O)CCN(c2c(F)cc(N3C[C@H](CO)OC3=O)cc2F)CC1`, `O=S1(=O)NCN(C2CC2)c2c(F)cc(F)c(F)c21` is higher in melting point: 117 to 119 °C for the first, 149 to 151 °C for the second.

First: CCOC(=O)CCCN(C(=O)CCC1CCCCC1)C1N=C(c2ccccc2)c2ccccc2N(C)C1=O (stereo not drawn)
Second: CCN(CC)CCC1CCCN1CCNC(=O)N1c2ccccc2C(=O)Nc2cccnc21 (stereo not drawn)
The melting point of the first is lower: 103 to 105 °C for the first, 127 to 128 °C for the second.

Compared with `Cc1cnc(CNC(=O)c2sc(N3C[C@@H](C)N(Cc4cc(F)cc(F)c4)C3=O)nc2C)cn1`, `CC(C)(O)CNc1nccc(-c2c(-c3ccc(F)cc3F)nc3c(CC4CC4)nccn23)n1` is higher in melting point: 131 to 132 °C for the first, 174 to 176 °C for the second.

First: C=CC(CCc1ccccc1)NC(=O)c1ccccc1 (stereo not drawn)
Second: COC[C@H](Cc1ccccc1)NC(=O)[C@@H](CC(=O)OCc1ccccc1)NC(=O)OC(C)(C)C
The melting point of the first is higher: 131 °C for the first, 60 to 63 °C for the second.

First: NS(=O)(=O)c1c(Cl)sc(Cl)c1Br
Second: NS(=O)(=O)c1ccc(N2CN(c3ccccc3)CC2=O)c(Br)c1
The melting point of the first is lower: 113 to 117 °C for the first, 193 to 200 °C for the second.

First: CCOC(=O)c1ccc(OCc2ccc3ccccc3c2)c(OC)c1
Second: COC(=O)c1ccc(OCCCCCCc2ccc3cc(OCc4ccccc4)c(OCc4ccccc4)cc3c2)cc1
The melting point of the first is lower: 86 to 87 °C for the first, 121 to 125 °C for the second.

Compared with `Cc1cc(C)nc(N(N=O)c2ccccc2)n1`, `Cc1cn(C(C)(C)C(=O)N(C)C)nc1-c1ccccc1` is lower in melting point: 117 to 121 °C for the first, 107 to 109 °C for the second.

First: CC1(C)C(=O)C(C)(C)c2cc(C(O)CN3CCN(c4nsc5ccccc45)CC3)ccc21 (stereo not drawn)
Second: Nc1nc(-c2ccc(CCCCN3CCN(c4cccc5ccccc45)CC3)cc2)cs1
The melting point of the first is lower: 189 to 191 °C for the first, 242 to 245 °C for the second.

First: COc1c(Cl)cccc1N1CN(C)C(=S)n2ncnc21
Second: CCCCn1c(C=O)cnc1Cc1c(F)cccc1Cl
The melting point of the first is higher: 208 to 210 °C for the first, 88 to 90 °C for the second.

First: CC[C@H](C)CNC(=O)[C@@H](C[C@H](O)[C@H](CC1CCCCC1)NC(=O)[C@H](Cc1cscn1)NC(=O)[C@@H](CC(=O)N1CCOCC1)Cc1ccccc1)C(C)(C)O
Second: N[C@H]1CCN(c2ccc3c(C(=O)NCC4CCCCC4)cccc3n2)C1
The melting point of the first is lower: 80 to 82 °C for the first, 127 to 128 °C for the second.

Compared with `Cc1cccc(Cl)c1C(N)=NO`, `Cc1ccccc1CCC(=NO)C(=O)C(F)(F)F` is lower in melting point: 136 to 137 °C for the first, 80 to 81 °C for the second.

First: Cc1oc(=O)oc1COC(=O)c1oc2cccc(O)c2c1C
Second: O=C(O)C1Cc2c(ccc3c(=O)c4ccccc4oc23)O1 (stereo not drawn)
The melting point of the first is lower: 168 to 170 °C for the first, 283 to 286 °C for the second.

First: CC(C)(C)c1ccc(N(c2ccccc2)c2ccc(-c3ccc(Nc4ccccc4)cc3)cc2)cc1
Second: O=C(Nc1ccccc1)c1cccc(-c2ccc(OCC(O)CCc3cccnc3)cc2)c1 (stereo not drawn)
The melting point of the first is higher: 126 to 127 °C for the first, 90 to 93 °C for the second.

Compared with `CS(=O)(=O)Nc1ccc(-c2cn3cccnc3n2)cc1Sc1ccc(F)cc1F`, `CC(C)(O)COc1c(-c2ccc(S(N)(=O)=O)cc2)cnn(-c2ccc(F)c(Cl)c2)c1=O` is lower in melting point: 219 to 220 °C for the first, 176 to 178 °C for the second.

First: COc1cccc(-c2ccc3ccc(N)nc3n2)c1
Second: COC(=O)c1ccccc1Oc1ccc([N+](=O)[O-])cc1
The melting point of the first is higher: 270 to 275 °C for the first, 74 °C for the second.

First: CCOP(=O)(C[C@H]1CCN[C@@H](C(N)=O)C1)OCC (relative stereo)
Second: CCOC(=O)Cn1ccc2ccc3c(c21)CCN(C(=O)OC(C)(C)C)CC3
The melting point of the first is higher: 155 to 158 °C for the first, 111 to 115 °C for the second.

First: O=C1C(=O)N(CCCN2CCN(C(c3ccccc3)(c3ccccc3)c3ccccc3)CC2)c2ccccc21
Second: COC(=O)c1ccccc1SC1=C(O)CC(CCc2ccccc2)(c2ccccc2)OC1=O (stereo not drawn)
The melting point of the first is higher: 145 to 149 °C for the first, 91 to 92 °C for the second.

Compared with `O=C(Nc1cccc(F)c1)N1CCc2cc(S(=O)(=O)N3CCN(c4cccc(Cl)c4)CC3)ccc21`, `COc1cc(-c2ccccc2F)c(Cl)cc1C(=O)N1Cc2ccc(C(=O)O)n2Cc2ccccc21` is lower in melting point: 208 to 210 °C for the first, 192 to 194 °C for the second.

First: CCCCCCCCCCCCCCCCCCOc1ccc(OCc2ccccc2)c(C(=O)O)c1
Second: CCCCCCCCc1ccc(CCC(CO)(CO)NC(C)=O)s1
The melting point of the first is higher: 80 to 81 °C for the first, 58 to 60 °C for the second.

Compared with `COc1ccc(-c2c(NC(C)C(C)(C)C)c(=O)c2=O)cc1` (stereo not drawn), `COc1cc(C(=O)Nc2ccc(S(=O)(=O)C(F)(F)F)cc2Cl)c(O)c(C(C)(C)C)c1` is lower in melting point: 179 to 181 °C for the first, 126 to 127 °C for the second.

Compared with `COc1cc(OC)cc(N2CCN(C(=O)Nc3nc(C)c(C)nc3OC)CC2)c1`, `Cc1ccc2c(=O)[nH]c(N3CCN(C)CC3)cc2c1` is higher in melting point: 136 to 137 °C for the first, 242 to 243 °C for the second.

First: O=[N+]([O-])c1ccc2oc(-c3sccc3CBr)nc2c1
Second: O=C(O)c1cc([N+](=O)[O-])cc2c1Nc1ccc(CCCc3ccc(Cl)c(Cl)c3)cc1O2
The melting point of the first is higher: 146 to 148 °C for the first, 90 to 93 °C for the second.

Compared with `COc1ccc2c(c1)c(OC(C)C)c(C(=O)Nc1ccccc1O)n2-c1ccccc1`, `COc1c(NS(=O)(=O)c2ccccc2)cccc1C(=O)Nc1ccccc1` is higher in melting point: 168 to 170 °C for the first, 190 to 194 °C for the second.

First: O=c1ncc(Cl)cn1CC(O)CO (stereo not drawn)
Second: CCn1c(=O)c(C(=O)O)c(O)c2ccc(C)nc21
The melting point of the first is lower: 136 to 138 °C for the first, 162 to 165 °C for the second.

First: CCCc1c(OCC(O)COc2cccc(N)c2C#N)ccc(C(C)=O)c1O (stereo not drawn)
Second: CCCCNc1c(C#N)cnc2cc(OCCOC)c(OC)cc12
The melting point of the first is higher: 123 to 125 °C for the first, 99 to 102 °C for the second.

First: O=Cc1cc(Cl)cc(C=O)n1
Second: NS(=O)(=O)c1cc2[nH]c(CCc3ccccc3)nc2cc1Cl
The melting point of the first is lower: 163 °C for the first, 226 to 228 °C for the second.

First: Fc1cccc2c(OCCc3ccc(Cl)cc3)ccnc12
Second: COC(=O)Nc1cnc2c(NC(=O)c3c(Cl)cccc3Cl)cccc2c1-n1ccnc1
The melting point of the first is lower: 139 to 140 °C for the first, 236 to 238 °C for the second.

Compared with `CCNc1ccc2c(c1)CN(c1c(F)cc3c(=O)c(C(=O)O)cn4c3c1OCC4C)C2` (stereo not drawn), `COc1ccc(Cl)cc1N1CCN(CCCNC(=O)c2cccc3c(=O)c(C)c(C(N)=O)oc23)CC1` is lower in melting point: > 300 °C for the first, 184 to 192 °C for the second.

Compared with `CC(NC(=O)C(C)(C)CCl)c1ccc(Cl)cc1` (stereo not drawn), `CC(C)(Cc1ccc(S(=O)C(F)(F)F)cc1)C(O)c1cncnc1` (stereo not drawn) is higher in melting point: 95 to 96 °C for the first, 122 °C for the second.

First: CC(C)(C)c1cc(CCc2ccccc2NC(=O)N2CCN(Cc3ccccc3)CC2)cc(C(C)(C)C)c1O
Second: O=C(O)c1ccccc1C(=O)Nc1ccc2c(=O)n3c(nc2c1)C(=Cc1ccccc1)CC3
The melting point of the first is lower: 70 to 72 °C for the first, > 300 °C for the second.

First: CN(C)C(=O)c1cn(C)c(=O)cc1Nc1ccc(I)cc1F
Second: Cn1cc(-c2cccc(N3Cc4cc(C(C)(C)C)ccc4C3=O)c2CO)cc(Nc2ccc(C3CNC3)cn2)c1=O
The melting point of the first is lower: 106 to 111 °C for the first, 185 to 186 °C for the second.

First: O=C(Nc1cccc2ccccc12)N1C(=O)C2(CCCCC2)NC12CCCCC2
Second: COc1cccc2c1Sc1ccccc1C21CCN(C#N)CC1
The melting point of the first is higher: 157 to 160 °C for the first, 145 to 146 °C for the second.

Compared with `Cn1cc2c(nc(NC(=O)Nc3ccc(CC(=O)O)cc3)n3nc(-c4ccco4)nc23)n1`, `CCCNC(=O)Nc1ccc(C(=O)c2c(C)c(OCCOC)c3ccccn23)cc1C(=O)OC` is lower in melting point: > 300 °C for the first, 125 °C for the second.

First: COc1cc2c(cc1Nc1ncc(Cl)c(N[C@@H]3[C@H](C(N)=O)[C@H]4C=C[C@@H]3C4)n1)CCOC(=O)N2C
Second: CCOC(=O)N1CCN(C2Cc3ccccc3Sc3cc(Cl)c(Cl)cc32)CC1 (stereo not drawn)
The melting point of the first is lower: 168 to 170 °C for the first, 184 to 186 °C for the second.

First: O=C(NS(=O)(=O)c1cc(C(F)(F)F)ccc1Cl)c1cn2cc(C(F)(F)F)cnc2n1
Second: FC(F)(F)c1ccc(-c2cc(C(F)(F)F)n3cnc(-c4cccnc4)c3n2)cc1
The melting point of the first is lower: 211 to 212 °C for the first, 231 °C for the second.

First: CC(C)(C)OC(=O)N[C@H]1C(=O)N[C@H]1CON1C(=O)c2ccccc2C1=O (relative stereo)
Second: CCOC(=O)C1(C(=O)OCC)N(c2ccccc2)C(=O)CC1(C)O (stereo not drawn)
The melting point of the first is higher: 218 to 219 °C for the first, 98 to 99 °C for the second.

First: CC1CC(=O)NN=C1c1ccc(-n2cnc3c2CCCC3)nc1 (stereo not drawn)
Second: COCC(=O)N1CCc2nc3ccccc3c(C)c2CC1
The melting point of the first is higher: 234 to 235 °C for the first, 116 °C for the second.

First: O=C(O)C(=O)c1ccc(C(F)(F)F)cc1
Second: CNC(=O)c1ccc(C=CC(=O)NCC(=O)N(C)c2ccc(C)c(CCl)c2C)cc1
The melting point of the first is lower: 63 to 65 °C for the first, 232 °C for the second.

Compared with `CCCCCCCS(=O)(=O)c1ccc(N)cc1`, `CC1COP(=O)(Cc2ccc(N)cc2)OC1` (stereo not drawn) is higher in melting point: 91 to 92 °C for the first, 158 to 159 °C for the second.

Compared with `C[N+]([O-])=C(Cn1cncn1)c1ccccc1`, `O=C(O)c1ccc(-n2cc(C3c4ccccc4C=Cc4ccccc43)c(=S)[nH]c2=O)cc1` is higher in melting point: 117 to 119 °C for the first, 320 °C for the second.

Compared with `CCN(CC)c1nc2[nH]c3c(c(=O)n2n1)SCCC3`, `CCCCNc1c(C(=O)OCC)c(C)nc2nnsc12` is lower in melting point: 308 to 310 °C for the first, 57 to 58 °C for the second.

First: COC(=O)CCC(=O)c1cc(NC(C)=O)ccc1O
Second: CC(=O)Oc1cccc2c1C(=O)c1c(OC(C)=O)cc(-c3nnn[nH]3)cc1C2=O
The melting point of the first is lower: 145 to 147 °C for the first, 189 to 190 °C for the second.

First: CC(=O)NC(CCCCN)C(=O)C(N)C(CC1(C(=O)NC2CCC(C(=O)O)CC2)CCCC1)C(=O)O (stereo not drawn)
Second: CCOC(=O)Cn1c2c(c3cc(Cl)cc(Cl)c31)CCN(C(=O)OC(C)(C)C)CC2
The melting point of the first is higher: 161 to 163 °C for the first, 117 to 120 °C for the second.

First: N#CN1C2CCC1CC(c1n[nH]c3cc(F)ccc13)C2 (stereo not drawn)
Second: COc1nc(C2CC2)nc(C(Cl)(Cl)Cl)n1
The melting point of the first is higher: 182 to 184 °C for the first, 49 to 51 °C for the second.
